Test results reported in ChEMBL document CHEMBL2424628, “Discovery of potent and selective nonsteroidal indazolyl amide glucocorticoid receptor agonists” (Bioorg Med Chem Lett, 2013).

How the values were obtained:
Format in all cases: cell-based
[1] = biological target: T1, Glucocorticoid receptor (Homo sapiens) (UniProt P04150); assay: Agonist activity at glucocorticoid receptor in human A549 cells assessed as inhibition of IL-1beta-induced NF-kappaB dependent E-selectin activation by luciferase reporter gene assay relative to dexamethasone
T1 sequence (whole entry): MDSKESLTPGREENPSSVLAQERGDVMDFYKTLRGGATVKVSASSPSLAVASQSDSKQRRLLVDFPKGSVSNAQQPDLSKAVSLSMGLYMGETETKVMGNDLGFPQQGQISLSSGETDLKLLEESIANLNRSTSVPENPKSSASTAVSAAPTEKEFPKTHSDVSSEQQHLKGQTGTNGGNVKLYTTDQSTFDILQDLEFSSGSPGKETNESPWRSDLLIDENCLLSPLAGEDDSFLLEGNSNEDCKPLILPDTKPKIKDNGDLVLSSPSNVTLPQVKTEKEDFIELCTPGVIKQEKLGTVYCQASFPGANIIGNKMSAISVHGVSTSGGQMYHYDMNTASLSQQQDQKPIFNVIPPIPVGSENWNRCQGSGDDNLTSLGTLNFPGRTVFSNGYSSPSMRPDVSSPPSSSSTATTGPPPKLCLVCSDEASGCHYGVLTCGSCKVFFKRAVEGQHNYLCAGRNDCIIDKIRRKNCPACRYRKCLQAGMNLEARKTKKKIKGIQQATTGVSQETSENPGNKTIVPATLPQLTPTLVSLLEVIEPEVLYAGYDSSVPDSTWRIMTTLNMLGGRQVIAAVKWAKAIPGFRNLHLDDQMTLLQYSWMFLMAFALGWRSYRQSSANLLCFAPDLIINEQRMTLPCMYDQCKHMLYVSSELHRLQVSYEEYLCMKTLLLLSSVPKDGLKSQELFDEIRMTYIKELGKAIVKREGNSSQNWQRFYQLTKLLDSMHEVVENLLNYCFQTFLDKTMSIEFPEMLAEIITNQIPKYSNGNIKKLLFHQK

Glucocorticoid receptor [2] = biological target: T2, Glucocorticoid receptor (Homo sapiens, UniProt P04150); assay: Transactivation of glucocorticoid receptor ligand binding domain (unknown origin) transfected in human HeLa cells assessed as activation of NP-1 by GAL4 luciferase reporter gene assay
T2 sequence (P04150 whole entry): T1 sequence (whole entry)

Glucocorticoid receptor [3] = biological target: T2, Glucocorticoid receptor; assay: Agonist activity at glucocorticoid receptor in human A549 cells assessed as inhibition of IL-1beta-induced NF-kappaB dependent E-selectin activation by luciferase reporter gene assay

Efficacy [1]: 86%
EC50 (Glucocorticoid receptor [2]): 5.8 nM
EC50 (Glucocorticoid receptor [3]): 4 nM
Structure (SMILES): CC(C)(C(=O)Nc1nncs1)[C@@H](c1ccccc1)c1ccc2c(cnn2-c2ccc(F)cc2)c1
